Source: patent US9132161B2

Tests used:
TNF-RE tkLuc = experiment: Antiestrogen effect on TNF-RE tkLuc (Example 2); format: cell-based, human; conditions: for effect on the repression induced by E2: TNF-RE tkLuc; for activation of TNF-RE tkLuc: antiestrogens, in contrast to E2
[1] = tested on: women with estrogen receptor-positive breast cancer; conditions: five years of therapy; cited from earlier work
[2] = tested on: women considered to be at high risk for breast cancer; conditions: cited from earlier work
[3] = tested on: postmenopausal women who have osteoporosis; conditions: median follow-up of 40 months, cited from earlier work
ERβ [4] = molecular target: T1, ERβ (Homo sapiens, UniProt Q92731); experiment: ERE-tk-Luc luciferase assay in U2OS cells, ERβ; format: cell-based; set-up: expressed in transfected cells; host or cells: U2OS (human osteosarcoma), electroporated; conditions: competition with herb 6, U2OS cells, FIG. 6
T1 sequence (Q92731 whole entry): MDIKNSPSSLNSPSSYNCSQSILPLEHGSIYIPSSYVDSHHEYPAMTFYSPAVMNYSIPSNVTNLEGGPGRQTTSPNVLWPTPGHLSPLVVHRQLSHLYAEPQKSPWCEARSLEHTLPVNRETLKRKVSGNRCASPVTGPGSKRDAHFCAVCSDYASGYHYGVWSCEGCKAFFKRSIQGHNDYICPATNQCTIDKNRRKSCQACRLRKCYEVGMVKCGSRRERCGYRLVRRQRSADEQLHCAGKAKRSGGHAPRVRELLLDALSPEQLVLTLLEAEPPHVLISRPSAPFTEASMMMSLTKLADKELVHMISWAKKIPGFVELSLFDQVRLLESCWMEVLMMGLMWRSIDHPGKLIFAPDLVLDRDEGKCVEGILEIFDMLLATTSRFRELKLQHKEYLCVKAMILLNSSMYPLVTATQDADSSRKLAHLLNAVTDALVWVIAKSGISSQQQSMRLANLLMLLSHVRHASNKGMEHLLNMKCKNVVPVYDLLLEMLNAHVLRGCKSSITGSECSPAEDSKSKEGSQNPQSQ

ERβ [5] = molecular target: T1, ERβ; conditions: in the presence of ERβ
ERβ [6] = molecular target: T1, ERβ; experiment: TNF-RE tkLuc repression in U2OS cells, ERβ; format: cell-based; set-up: expressed in transfected cells

SMILES | effect on the repression induced by E2 (TNF-RE tkLuc) | activation of TNF-RE tkLuc (TNF-RE tkLuc) [fold] | reduction of mortality from breast cancer [1] [%] | reduction of the risk of recurrences [1] [%] | reduction of the risk of primary invasive breast cancer [2] [%] | cases of breast cancer in the treatment group ([3]; among 5129 women) [cases] | RR of breast cancer versus placebo [3] | effect on herb 6 stimulation of the ERE with ERβ (ERβ [4]) | repression of TNF-α activation of TNF-RE tkLuc (ERβ [5]) | repression of TNF-α activation of TNF-RE (ERβ [6]) [%]
CC/C(=C(\c1ccccc1)c1ccc(OCCN(C)C)cc1)c1ccccc1 [tamoxifen] | abolished the repression induced by E2 | 2 | 22 | 42 | 49 |  |  |  |  | 
C[C@]12CC[C@@H]3c4ccc(O)cc4C[C@@H](CCCCCCCCC[S+]([O-])CCCC(F)(F)C(F)(F)F)[C@H]3[C@@H]1CC[C@@H]2O (some centres unmarked) [ICI 182, 780] | abolished the repression induced by E2 | 2 |  |  |  |  |  |  |  | 
O=C(c1ccc(OCCN2CCCCC2)cc1)c1c(-c2ccc(O)cc2)sc2cc(O)ccc12 [raloxifene] | abolished the repression induced by E2 | 2 |  |  |  | 13 | 0.24 | inhibited |  | 
C[C@]12CC[C@@H]3c4ccc(O)cc4CC[C@H]3[C@@H]1CC[C@@H]2O [E2, estradiol] |  |  |  |  |  |  |  |  | 60-80% | 100
